Experiments:
[1] = system: CT-26 cells; assay: Cell viability (CCK-8) of CT-26 cells; assay type: cell-based, mouse; conditions: 4 h pretreatment with anticancer agent alone
Description: CT-26 and MC-38 cells (10^4 cells per well) were seeded into three wells of a 96-well plate and incubated at 37° C. The next day, the culture medium was replaced with 100 μL of fresh medium containing the above concentrations of anticancer agents. After incubation at 37° C. for 4 h, the culture medium was removed and the cells were washed three times with PBS. […] Finally, CCK-8 reagent (10 μL/well) was added for 3 h at 37° C., and the amount of color in each sample was measured at OD450.

[2] = system: CT-26 tumor; assay: In vivo anti-cancer efficacy in CT-26 tumor-bearing mice
Description: CT-26 and MC-38 tumor cells (106 in 100 μL PBS) were implanted subcutaneously into the right flanks of 6-week-old BALB/c and C57BL/6 female mice (Orient company, Korea), respectively. When the tumors reached about 100 mm^3, the tumor-bearing mice were injected intraperitoneally with anticancer agents (15 mg/kg GEM, 10 mg/kg DOX or 2 mg/kg MTX) three times every 2 days. Simultaneously, the mice were injected intravenously with the PASylated recombinant proteins of the present invention five times every 2 days. The length (L), width (W), and height (H) of each tumor were recorded every 3 days using a digital caliper, and the tumor volume (mm3) was calculated using the following formula (L×H×W)/2. Mice were euthanized when tumors were ˜1,500 mm^3 and all animal experiments were performed in accordance with the general principles and procedures outlined in the National Institutes of Health Guidelines, and all protocols were approved by the Chonnam National University Animal Care and Use Committee (permit number: HCRL 16-001).

SMILES | decrease in cell viability by pretreatment with anticancer agents [1] | average tumor weight ([2]; day 12, combination with DOX, 8 IU/mouse) | tumor growth ([2]; dose-finding study, DOX 10 mg/kg i.p. x3, CRT3LP i.v. x5, n=3)
COc1cccc2c1C(=O)c1c(O)c3c(c(O)c1C2=O)C[C@@](O)(C(=O)CO)C[C@@H]3O[C@H]1C[C@H](N)[C@H](O)[C@H](C)O1 [DOX, doxorubicin, reference compound] | 57.9% | 304.8 mg | grew more slowly than untreated tumors
O=C1c2c(O)ccc(O)c2C(=O)c2c(NCCNCCO)ccc(NCCNCCO)c21 [MTX, mitozantrone, reference compound] | 62.3% |  | 
Nc1ccn([C@@H]2O[C@H](CO)[C@@H](O)C2(F)F)c(=O)n1 [GEM, gemcitabine, reference compound] | 45.1% |  | 

— patent publication US20250376507A1, “NOVEL TUMOR ANTIGEN-TARGETING ANTICANCER AGENT” (INDUSTRY FOUNDATION OF CHONNAM NATIONAL UNIVERSITY, priority 2022, published 2025)
